Data on 39 molecules can be found in US20170022201A1, “MACROCYLIC PYRIDINE DERIVATIVES” (Janssen Pharmaceutica NV, priority 2014, published 2017).

For test [1], the target named is T1, EF2K (Homo sapiens, UniProt O00418).
T1 construct: host or cells: LN-229 glioblastoma cell lysate
T1 sequence (O00418 1-725): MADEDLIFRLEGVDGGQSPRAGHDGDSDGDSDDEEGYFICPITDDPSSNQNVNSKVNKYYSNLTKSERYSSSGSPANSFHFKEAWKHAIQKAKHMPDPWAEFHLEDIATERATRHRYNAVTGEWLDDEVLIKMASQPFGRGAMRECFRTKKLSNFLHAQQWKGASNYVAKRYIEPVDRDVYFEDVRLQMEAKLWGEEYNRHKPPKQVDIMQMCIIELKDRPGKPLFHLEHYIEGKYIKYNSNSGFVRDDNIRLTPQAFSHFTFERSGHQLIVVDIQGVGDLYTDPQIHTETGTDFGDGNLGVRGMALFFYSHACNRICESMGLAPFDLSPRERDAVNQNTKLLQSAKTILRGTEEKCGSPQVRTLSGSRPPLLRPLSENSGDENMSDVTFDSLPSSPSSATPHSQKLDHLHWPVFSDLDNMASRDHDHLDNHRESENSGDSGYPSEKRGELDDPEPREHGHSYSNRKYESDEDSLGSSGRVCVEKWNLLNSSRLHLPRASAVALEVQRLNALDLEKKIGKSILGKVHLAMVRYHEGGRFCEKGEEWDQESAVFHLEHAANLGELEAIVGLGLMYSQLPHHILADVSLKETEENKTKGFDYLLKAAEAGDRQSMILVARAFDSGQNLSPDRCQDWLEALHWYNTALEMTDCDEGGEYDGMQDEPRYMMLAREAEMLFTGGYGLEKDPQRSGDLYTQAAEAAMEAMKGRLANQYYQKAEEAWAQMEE
Nature of the test: Biochemical EF2K lysate-based kinase assay (AlphaLISA p-eEF2 Thr56). The following applies: LN-229 cell lysates, 10 mM ATP, pH 6.6; pIC50 = -log IC50 (M); read-out: eEF2K_C_alphalisa pIC50 (converted). From the text: LN-229 cells were purchased from ATCC (CRL-2611); these are glioblastoma cells. Cell lysates from LN229 were used in this kinase assay to provide both the kinase and the substrate (EF2). The AlphaLISA p-eEF2 (Thr56) detection assay was developed using a sandwich assay format with two specific antibodies recognizing different epitopes of the target, including one antibody against the phosphorylation site of interest. One anti-eEF2 antibody was conjugated onto AlphaLISA Acceptor beads, while the second antibody was biotinylated and captured by streptavidin coated Donor beads.
Compound was mixed with LN-229 cell lysates in the presence of a kinase buffer (e.g. HEPES) at a pH of 6.6, containing 10 mM Mg^2+ (e.g. magnesium acetate) and 10 mM adenosine-tri-phosphate (ATP) and incubated at room temperature for 15 minutes. The kinase reaction was stopped with excess ethylenediaminetetraacetic acid disodium salt and the biotinylated-anti phospho eEF2 antibody (3 nM) was added for 1 hour. Then the anti-EF2 acceptor beads (10 μg/ml) as well as the streptavidin coated donor beads (20 μg/ml) were added for 1 hour, and the AlphaLISA signal was measured in an Envision instrument once, left overnight, and measured again for the final read.
On the technique in general: In Alpha technology, singlet oxygen from a donor bead excites a nearby acceptor bead.

For test [2], the target named is T2, eEF2K (Homo sapiens, UniProt O00418).
T2 construct: in the immortalized epithelial breast cell lines, MCF10A; host or cells: MCF10A immortalized breast epithelial cells
T2 sequence (O00418 1-725): T1 sequence (O00418 1-725)
Nature of the test: EF2K cell-based assay (P-EF2 AlphaLISA, 2-deoxyglucose stimulated MCF10A cells). The following applies: 2.5 mM 2-deoxyglucose 4 h, phosphorylation of EF2 at Thr 56, pIC50 = -log IC50 (M), read-out: eEF2K_C_PThr56 pIC50 (converted). The protocol: In this assay, 2.5 mM 2-deoxyglucose was used to deplete intracellular ATP and activate 5′ adenosine monophosphate-activated protein kinase (AMPK) in the immortalized epithelial breast cell lines, MCF10A. MCF 10A cells were purchased from ATCC (CRL-10317).
MCF10A cells are seeded at a density of 1.25×10^5 Cells/ml at 100 μl/well in a 96-well plate and incubated for 24 hours (37° C., 5% CO2). Compound is added for 1 hour, and cell are stimulated with 2.5 mM of 2-deoxy-glucose for 4 hours. Medium is then removed, and cells are lysed in an ice-cold buffer M-PER (Thermo Scientific, 78501), containing protease and phosphatase inhibitors. P-EF2 levels are determined in these lysates using the P-EF2 AlphaLISA described above.

Each structure is given as a SMILES string.

Turning to `O=C1NCCCNc2ncc(cn2)-c2ccnc(c2)Nc2cccc(c2F)OC2CCN(CC2)C12CC2` [Compound 89], the values for the IC50 in test [1] and in test [2] were roughly 4.47e-09 M and 3.24e-07 M, respectively.

For the molecule `NC1CC2CCNC(=O)C3(CC3)N3CCN(CC3)Cc3cccc(c3)Nc3cc(ccn3)-c3cnc(nc3)N2C1` (stereo not shown) [Compound 85], the values for the IC50 in test [1] and in test [2] were 2.75e-08 M and 1.1e-06 M, respectively.

As to `CC(=O)NCCCOCC1CN2CCN1Cc1cccc(c1)Nc1cc(ccn1)-c1cnc(nc1)NCCCNC(=O)C2` (stereo not shown) [Compound 149], the IC50 in test [1] is 6.31e-06 M; in test [2] it was greater than 1e-05 M.

For the molecule `O=C1CN2CCN(CC2)Cc2cccc(c2)Nc2cc(ccn2)-c2cnc(nc2)N2CCC2CCN1` (stereo not shown) [Compound 49], the IC50 was 2.51e-05 M in test [1] and greater than 1e-05 M in test [2].

For `O=C1CN2CCC(CC2)Oc2cccc(c2)Nc2cc(ccn2)-c2cnc(nc2)N2CC(O)CC2CCN1` (stereo not shown) [Compound 99], the IC50 in test [1] is 3.09e-08 M; in test [2] it was 1.07e-06 M.

`O=C1CN2CCN(CC2)Cc2cccc(c2)Nc2cc(ccn2)-c2cnc(nc2)N2CC=CC2CCN1` (stereo not shown) [Compound 81]: the IC50 in test [1] was 4.9e-09 M; in test [2] it was 3.09e-07 M.

`NCCCCC1C(=O)NCCCNc2ncc(cn2)-c2ccnc(c2)Nc2cccc(c2)CN2CCN1CC2` (stereo not shown) [Compound 113]: the IC50 in test [2] is 5.5e-06 M.

For `CC1c2cccc(c2F)Nc2cc(ccn2)-c2cnc(nc2)N2CC(O)CC2CCNC(=O)C2(CC2)N2CCN1CC2` (stereo not shown) [Compound 52], the IC50 in test [1] is 5.37e-09 M; in test [2], 7.59e-08 M.

Consider `CC(=O)NCCCOCC1CN2CCN1Cc1cccc(c1)Nc1cc(ccn1)-c1cnc(nc1)NCCCNC(=O)C2` (stereo not shown) [Compound 115], for which the results for the IC50 in test [1] and in test [2] were 1.51e-07 M and 4.37e-07 M, respectively.

For the molecule `O=C1CN2CCN(CC2)Cc2cccc(c2)Nc2cc(ccn2)-c2cnc(nc2)C2CCCN2CCN1` (single isomer, unassigned) [Compound 139], the IC50 in test [1] is 7.59e-06 M; in test [2] it was greater than 1e-05 M.

Consider `O=C1CN2CCC(C2)Oc2cccc(c2)Nc2cc(ccn2)-c2cnc(nc2)NCCCN1` (stereo not shown) [Compound 93], for which the values for the IC50 in test [1] and in test [2] were 7.94e-08 M and 6.31e-07 M, respectively.

In the case of `CN1c2cccc(c2F)Nc2cc(ccn2)-c2cnc(nc2)NCCCNC(=O)C2(CC2)N2CCC1CC2` [Compound 103], the IC50 in test [1] is 1.91e-07 M; in test [2], 1.62e-06 M.

Turning to `O=C1CN2CC(C2)Oc2cccc(c2)Nc2cc(ccn2)-c2cnc(nc2)NCCCN1` [Compound 92], the IC50 in test [1] is 1.26e-07 M; in test [2], 1.17e-06 M.

Take `O=C1CN2CCN(CC2)Cc2cccc(c2)Nc2cc(ccn2)-c2cnc(nc2)N2CC(F)CC2CCN1` (stereo not shown) [Compound 80]: the IC50 in test [1] is 1e-08 M; in test [2], 6.31e-07 M.

With `O=C1CN2CCN(CC2)Cc2cccc(c2)Nc2cc(ccn2)-c2ccc(nc2)N2CCCC2CCN1` (stereo not shown) [Compound 141], the IC50 in test [2] is roughly 3.63e-06 M.

In the case of `CC1c2cccc(c2F)Nc2cc(ccn2)-c2cnc(nc2)NCCCNC(=O)C2(CC2)N2CCN1CC2` (single isomer, unassigned) [Compound 12], the results for the IC50 in test [1] and in test [2] were 1.45e-07 M and greater than 1e-05 M, respectively.

Take `O=C1CN2CCN(CC2)Cc2cccc(c2)Nc2cc(ccn2)-c2cnc(nc2)NC(CC2CC2)CCN1` (stereo not shown) [Compound 125]: the results for the IC50 in test [1] and in test [2] were 5.75e-06 M and greater than 1e-05 M, respectively.

`O=C1NCCCNc2ncc(cn2)-c2ccnc(c2)Nc2cccc(c2F)CN2CCN(CC2)C12CC2` [Compound 20]: the IC50 in test [1] is 3.98e-09 M; in test [2] it was 1.66e-07 M.

In the case of `CCCN1CCNC(=O)CN2CCN(CC2)Cc2cccc(c2)Nc2cc(ccn2)-c2ccc(nc2)C1` [Compound 147], the IC50 in test [1] is 3.98e-07 M; in test [2], 1.05e-06 M.

Consider `O=C1NCCC2CC(O)CN2c2ncc(cn2)-c2ccnc(c2)Nc2cccc(c2)CN2CCN(CC2)C12COC2` (stereo not shown) [Compound 63], for which the IC50 in test [1] was 1.95e-08 M; in test [2] it was 1.74e-06 M.

Turning to `O=C1NCCC2CC(O)CN2c2ncc(cn2)-c2ccnc(c2)Nc2cccc(c2)CN2CCN(CC2)C12COC2` (stereo not shown) [Compound 64], the IC50 in test [1] is 5.13e-09 M; in test [2] it was 3.89e-07 M.

In the case of `CN1c2cccc(c2F)Nc2cc(ccn2)-c2cnc(nc2)N2CC(O)CC2CCNC(=O)C2(CC2)N2CCC1CC2` (stereo not shown) [Compound 105], the IC50 in test [2] was 7.94e-07 M.

For the molecule `O=C1NCCCNc2ncc(cn2)-c2ccnc(c2)Nc2cccc(c2)OC2CCN(CC2)C12CC2` [Compound 95], the IC50 in test [1] is 6.76e-09 M; in test [2], roughly 6.46e-07 M.

In the case of `N#CC1CC2CCNC(=O)C3(CC3)N3CCN(CC3)Cc3cccc(c3)Nc3cc(ccn3)-c3cnc(nc3)N2C1` (stereo not shown) [Compound 79], the IC50 in test [1] was 9.77e-08 M; in test [2], 1.15e-06 M.

As to `O=C1CN2CCN(CC2)Cc2cc(ccn2)Nc2cc(ccn2)-c2cnc(nc2)N2CC(O)CC2CCN1` (stereo not shown) [Compound 51], in test [2], the IC50 is roughly 1e-05 M.

Regarding `O=C1NCCC2CC(O)CN2c2ncc(cn2)-c2ccnc(c2)Nc2cccc(c2)OC2CCN(CC2)C12CC2` (stereo not shown) [Compound 97], the IC50 is 1.82e-09 M in test [1] and 3.31e-07 M in test [2].

With `CN1CCCNc2ccc(cn2)-c2ccnc(c2)Nc2cccc(c2)CN2CCN(CC2)CC1=O` [Compound 69], the IC50 in test [1] was 1.41e-05 M; in test [2], greater than 3.02e-05 M.

For `CC1NCCNC(=O)CN2CCN(CC2)Cc2cccc(c2)Nc2cc(ccn2)-c2cnc1nc2` (stereo not shown) [Compound 133], the IC50 in test [1] was greater than 3.02e-05 M; in test [2] it was roughly 1e-05 M.

Consider `CC1c2cccc(c2)Nc2cc(ccn2)-c2cnc(nc2)NCCCNC(=O)C2(CC2)N2CCN1CC2` (single isomer, unassigned) [Compound 22], for which the IC50 in test [1] was roughly 1.05e-08 M; in test [2], 3.63e-07 M.

Turning to `O=C1CN2CCCC(CC2)Oc2cccc(c2)Nc2cc(ccn2)-c2cnc(nc2)NCCCN1` (stereo not shown) [Compound 94], the IC50 in test [1] was 6.61e-08 M; in test [2] it was 6.76e-07 M.

Take `CC1NCCNC(=O)CN2CCN(CC2)Cc2cccc(c2)Nc2cc(ccn2)-c2cnc1nc2` (stereo not shown) [Compound 134]: the IC50 in test [1] is 1.12e-05 M; in test [2], greater than 1e-05 M.

In the case of `O=C1CN2CCN(CC2)Cc2cccc(c2)Nc2cc(ccn2)-c2cnc(nc2)C2CCCN2CCN1` (single isomer, unassigned) [Compound 138], the IC50 in test [1] is roughly 1.58e-06 M.

For `O=C1CN2CCC(CC2)Oc2cccc(c2F)Nc2cc(ccn2)-c2cnc(nc2)NCCCN1` [Compound 91], the IC50 in test [1] was 1.35e-08 M; in test [2], 7.24e-07 M.

As to `CN1c2cccc(c2)Nc2cc(ccn2)-c2cnc(nc2)NCCCNC(=O)C2(CC2)N2CCC1CC2` [Compound 102], the figures for the IC50 in test [1] and in test [2] were 8.13e-08 M and 1.32e-06 M, respectively.

In the case of `O=C1CN2CCN(CC2)Cc2cccc(c2)Nc2cc(ccn2)-c2ccc(nc2)CNCCN1` [Compound 145], the figures for the IC50 in test [1] and in test [2] were roughly 5.5e-06 M and greater than 1e-05 M, respectively.

For `CC(=O)NCCCCC1C(=O)NCCCNc2ncc(cn2)-c2ccnc(c2)Nc2cccc(c2)CN2CCN1CC2` (stereo not shown) [Compound 109], the IC50 in test [1] is 3.55e-07 M; in test [2], greater than 1e-05 M.

For `COCCN1CCNC(=O)CN2CCN(CC2)Cc2cccc(c2)Nc2cc(ccn2)-c2cnc(nc2)C1` [Compound 129], the values for the IC50 in test [1] and in test [2] were 2.69e-05 M and greater than 1e-05 M, respectively.

As for `[N-]=[N+]=N[C@@H]1C[C@H]2CCNC(=O)CN3CCN(CC3)Cc3cccc(c3)Nc3cc(ccn3)-c3cnc(nc3)N2C1` [Compound 82], the IC50 was 1.86e-08 M in test [1] and 7.08e-07 M in test [2].

As for `CC1c2cccc(c2F)Nc2cc(ccn2)-c2cnc(nc2)NCCCNC(=O)C2(CC2)N2CCN1CC2` (single isomer, unassigned) [Compound 11], the values for the IC50 in test [1] and in test [2] were 2.75e-09 M and 2.88e-07 M, respectively.
